Measured values as given in US6768019B2 (Cheil Jedang Corporation, priority 2001, dated 2004).

Assays:
cyclooxygenase-1 = target: T1, cyclooxygenase-1 (Mus musculus, UniProt P22437); assay: Inhibition of cyclooxygenase-1 in mouse peritoneal macrophages (PGE2 ELISA); format: cell-based
T1 construct: endogenous in cells; host or cells: primary mouse peritoneal macrophages (unstimulated)
T1 sequence (P22437 27-602): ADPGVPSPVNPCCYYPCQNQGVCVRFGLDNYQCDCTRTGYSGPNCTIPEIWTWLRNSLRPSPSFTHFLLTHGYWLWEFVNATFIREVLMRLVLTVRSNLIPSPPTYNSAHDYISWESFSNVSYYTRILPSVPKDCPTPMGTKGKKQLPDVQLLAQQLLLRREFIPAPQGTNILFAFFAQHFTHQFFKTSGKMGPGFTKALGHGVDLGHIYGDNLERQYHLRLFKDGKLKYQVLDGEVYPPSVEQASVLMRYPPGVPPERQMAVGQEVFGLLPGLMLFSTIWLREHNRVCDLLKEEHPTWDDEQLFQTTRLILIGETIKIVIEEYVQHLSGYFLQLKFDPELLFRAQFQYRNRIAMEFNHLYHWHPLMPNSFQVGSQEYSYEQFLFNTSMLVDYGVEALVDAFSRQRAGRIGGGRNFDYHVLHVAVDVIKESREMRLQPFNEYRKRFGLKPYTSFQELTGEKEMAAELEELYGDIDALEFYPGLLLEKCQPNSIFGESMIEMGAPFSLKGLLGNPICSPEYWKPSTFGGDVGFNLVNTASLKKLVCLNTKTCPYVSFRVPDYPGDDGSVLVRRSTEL
Procedure: First of all, the cyclooxygenase-1 was examined through the following procedure.
Peritoneal fluid in which macrophages were suspended was extracted from a mouse peritoneal cavity and centrifuged at 4° C., 1,000 rpm for 2 minutes. Then, the supernatant was removed, suspended with 20 ml of incomplete (no serum) RPMI medium [PC/SM (penicilin/streptomycin)] and again centrifuged under the same condition. […] Then, the cell number was calculated with the hemocytometer and adjusted to reach 1×10^6 cells/ml of cell concentration in the final cell suspension. 100 μl of the resulting suspension was transferred into each well of 96-well plate and left at 37° C. in 5% CO2 with the incubator for about 2 hours in order to attach macrophages. […] The resulting cell was cultivated in the incubator at 37° C. in 5% CO2 for about 12˜16 hours. Then, arachidonic acid was added, adjusting to 10 μM of a final concentration and incubated at 37° C. for more 10 minutes and the supernatant of the reacted solution (˜180 μl) was recovered to finish the reaction.

cyclooxygenase-2 = target: T2, cyclooxygenase-2 (Mus musculus, UniProt Q05769); assay: Inhibition of cyclooxygenase-2 in aspirin-pretreated, LPS-stimulated mouse peritoneal macrophages (PGE2 ELISA); format: cell-based
T2 construct: Peritoneal fluid suspended with macrophages was extracted from a mouse peritoneal cavity; endogenous in cells; host or cells: primary mouse peritoneal macrophages, pretreated with 500 uM aspirin and stimulated with 10 ug/ml LPS
T2 sequence (Q05769 18-604): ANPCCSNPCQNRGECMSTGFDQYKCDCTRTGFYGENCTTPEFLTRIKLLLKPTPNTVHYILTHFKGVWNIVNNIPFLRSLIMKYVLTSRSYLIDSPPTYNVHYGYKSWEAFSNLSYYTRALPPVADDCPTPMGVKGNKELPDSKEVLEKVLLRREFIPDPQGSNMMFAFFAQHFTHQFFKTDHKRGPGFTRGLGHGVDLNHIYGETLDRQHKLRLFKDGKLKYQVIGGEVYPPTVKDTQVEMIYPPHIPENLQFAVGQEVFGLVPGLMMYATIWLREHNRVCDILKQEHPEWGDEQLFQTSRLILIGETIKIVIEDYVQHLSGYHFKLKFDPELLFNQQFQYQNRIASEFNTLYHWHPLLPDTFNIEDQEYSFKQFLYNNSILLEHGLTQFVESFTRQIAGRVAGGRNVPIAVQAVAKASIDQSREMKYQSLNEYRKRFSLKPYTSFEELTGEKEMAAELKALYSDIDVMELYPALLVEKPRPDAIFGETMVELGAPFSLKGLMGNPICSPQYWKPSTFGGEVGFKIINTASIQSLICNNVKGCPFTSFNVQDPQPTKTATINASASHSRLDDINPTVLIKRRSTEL
Procedure: Second, the cyclooxygenase-2 was examined through the following procedure.
Peritoneal fluid suspended with macrophages was extracted from a mouse peritoneal cavity and centrifuged at 4° C., 1,000 rpm for 2 minutes. Then, the supernatant was removed, suspended using incomplete RPMI medium [PC/SM (penicilin/streptomycin)] and again centrifuged under the same condition. […] Then, the cell number was calculated with the hemocytometer and adjusted to reach 1×10^6 cells/ml of cell concentration in the final cell suspension. The resulting suspension was treated with aspirin, adjusting 500 μM of final concentration and transferred into each well of 96-well plate in 100 μl respectively. Again, it was left at 37° C. in 5% CO2 in the incubator for about 2 hours in order to attach macrophages. […] The resulting cell was cultivated in the incubator at 37° C. in 5% CO2 for about 12˜16 hours. Then, arachidonic acid was added, adjusting to 10 μM of a final concentration and incubated at 37° C. for more 10 minutes and the supernatant of the reacted solution (˜180 μl) was recovered to finish the reaction.

[1] = in words, versus comparative substance

| Compound | Inhibitory effects of cyclooxygenase (COX), COX-1 (cyclooxygenase-1; 3 μM) [% inhibition] | Inhibitory effects of cyclooxygenase (COX), COX-1 (cyclooxygenase-1; 10 μM) [% inhibition] | Inhibitory effects of cyclooxygenase (COX), COX-1 (cyclooxygenase-1; 30 μM) [% inhibition] | Inhibitory effects of cyclooxygenase (COX), COX-2 (cyclooxygenase-2; 30 nM) | Inhibitory effects of cyclooxygenase (COX), COX-2 (cyclooxygenase-2; 100 nM) | Inhibitory effects of cyclooxygenase (COX), COX-2 (cyclooxygenase-2; 300 nM) | inhibition effect against cyclooxygenase-1 compared with comparative substance (cyclooxygenase-1; [1]) | selectivity of cyclooxygenase-2 (cyclooxygenase-2; in words, COX-2 over COX-1) | inhibition effect against cyclooxygenase-2 compared with comparative substance (cyclooxygenase-2; [1]) |
| --- | --- | --- | --- | --- | --- | --- | --- | --- | --- |
| CS(=O)(=O)c1ccc(/C=C2/C(=O)CCc3ccccc32)cc1 [Example 1, (E)-1-(4-methanesulfonyl-benzylidene)-3,4-dihydro-1H-naphthalene-2-one] | 33.2 | 40.7 | 45.8 | ˜0 % inhibition | ˜0 % inhibition | ˜0 % inhibition |  |  |  |
| CS(=O)(=O)c1ccc(C=C2/C(=N/OCc3ccccc3)CCc3ccccc32)cc1 [Example 5, (E)-1-(4-methanesulfonyl-benzylidene)-3,4-dihydro-1H-naphthalene-2-one O-benzyl Oxime] | 39.9 | 47.1 | 54.3 | 51.2 % inhibition | 55.4 % inhibition | 61.4 % inhibition |  |  |  |
| CS(=O)(=O)c1ccc(-c2onc3c2-c2ccccc2CC3)cc1 [Example 7, 1-(4-methanesulfonyl-phenyl)-4,5-dihydro-naphto[2,1-c]isooxazole] | 30 | 44.1 | 56.4 | 59.8 % inhibition | 70.6 % inhibition | 76.8 % inhibition | much lower level than a comparative substance | better than any other substances | more excellent than a comparative substance |
| Cn1nc2c(c1-c1ccc(S(C)(=O)=O)cc1)-c1ccccc1CC2 [Example 10, 1-(4-methanesulfonyl-phenyl)-2-methyl-4,5-dihydro-2H-benzo[e]imidazole] | 49.8 | 55.3 | 61.5 | 20.2 % inhibition | 31.8 % inhibition | 61.0 % inhibition |  |  |  |
| CS(=O)(=O)c1ccc(-c2[nH]nc3c2-c2ccccc2CC3)cc1 [Example 6, 1-(4-methanesulfonyl-phenyl)-4,5-dihydro-2H-benzo[e]indazole] | 52.3 | 57.3 | 64.8 | 33.4 % inhibition | 46.6 % inhibition | 54.9 % inhibition |  |  |  |
| CC(=O)O/N=C1\CCc2ccccc2C1=Cc1ccc(S(C)(=O)=O)cc1 [Example 8, (E)-1-(4-methanesulfonyl-benzylidene)-3,4-dihydro-1H-naphthalene-2-one O-acetyl-oxime] | 7.6 | 32.3 | 53.9 | 22.1 % inhibition | 28.6 % inhibition | 29.6 % inhibition |  |  |  |
| CS(=O)(=O)c1ccc(C=C2/C(=N/OC(=O)COCc3ccccc3)CCc3ccccc32)cc1 [Example 9, (E)-1-(4-methanesulfonyl-benzylidene)-3,4-dihydro-1H-naphthalene-2-one O-benzyloxyacetyl-oxime] | 22.8 | 31.1 | 42.1 | 20.4 % inhibition | 25.5 % inhibition | 30.1 % inhibition |  |  |  |
| CCO/N=C1\CCc2ccccc2C1=Cc1ccc(S(C)(=O)=O)cc1 [Example 3, (E)-1-(4-methanesulfonyl-benzylidene)-3,4-dihydro-1H-naphthalene-2-one O-ethyl Oxime] | 60.4 | 64.4 | 74.6 | 50.1 % inhibition | 58.8 % inhibition | 70.2 % inhibition |  |  |  |
| CO/N=C1\CCc2ccccc2C1=Cc1ccc(S(C)(=O)=O)cc1 [Example 4, (E)-1-(4-methanesulfonyl-benzylidene)-3,4-dihydro-1H-naphthalene-2-one O-methyl Oxime] | 60.3 | 71.1 | 80.1 | 55.4 % inhibition | 69.9 % inhibition | 81.5 % inhibition |  |  |  |
| CS(=O)(=O)c1ccc(C=C2/C(=N/O)CCc3ccccc32)cc1 [Example 2, (E)-1-(4-methanesulfonyl-benzylidene)-3,4-dihydro-1H-naphthalene-2-one oxime] | 56.7 | 68.7 | 80.4 | 15.7 % inhibition | 20.7 % inhibition | 22 % inhibition |  |  |  |
